# Counter-ions that a name gives are not always drawn.
# Tested on: Acinetobacter baumannii ATCC17961
# Assay: Antimicrobial susceptibility testing: 90% growth inhibitory concentration (IC90) determination in Iso-Sensitest broth, OD600 growth
# Type: cell-based
# Details: Acinetobacter baumannii, ATCC17961, 16 h, read-out: A. baumannii ATCC 17961 IC90 (uM), strain ATCC 17961, OD600 growth over 16 h
# Method in brief: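 Growth monitored at 600 nm every 20 min for 16 h at 35±2 °C, inoculum ~5×10^(5) CFU/ml in Iso-Sensitest medium. Compounds in 10-point twofold series, e.g. 50 to 0.097 μM final; 90% inhibitory concentration taken from log-phase growth.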
row,Compound,IC90 [µM]
1,"N[C@@H]1CC[C@H](C(=O)N2CCN(C(=O)c3ccc(Nc4nccn5c(-c6c[nH]nc6C(F)(F)F)cnc45)cc3Cl)CC2)C1 [Example 342, [4-[(1S,3R)-3-aminocyclopentanecarbonyl]piperazin-1-yl]-[2-chloro-4-[[3-[3-(trifluoromethyl)-1H-pyrazol-4-yl]imidazo[1,2-a]pyrazin-8-yl]amino]phenyl]methanone formate]",0.228
2,"CCc1cc(Nc2nccn3c(-c4c[nH]nc4C(F)(F)F)cnc23)ccc1C(=O)N[C@@H](C)CN [Example 349, N-[(2S)-1-aminopropan-2-yl]-2-ethyl-4-[[3-[3-(trifluoromethyl)-1H-pyrazol-4-yl]imidazo[1,2-a]pyrazin-8-yl]amino]benzamide formate]",1.63
3,"N#CCn1cc(-c2cnc3c(Nc4ccc(C(=O)N5CCN(C(=O)C6CCNCC6)CC5)c(Cl)c4)nccn23)c(C(F)(F)F)n1 [Example 366, 2-[4-[8-[3-chloro-4-[4-(piperidine-4-carbonyl)piperazine-1-carbonyl]anilino]imidazo[1,2-a]pyrazin-3-yl]-3-(trifluoromethyl)pyrazol-1-yl]acetonitrile formate]",0.296
4,"Cc1cc(Nc2nccn3c(-c4cn(CC#N)nc4C(F)(F)F)cnc23)ccc1C(=O)NCCCNC(=O)[C@@H]1C[C@@H](O)CN1 [Example 367, (2S,4R)-N-[3-[[4-[[3-[1-(cyanomethyl)-3-(trifluoromethyl)pyrazol-4-yl]imidazo[1,2-a]pyrazin-8-yl]amino]-2-methylbenzoyl]amino]propyl]-4-hydroxypyrrolidine-2-carboxamide formate]",0.468

# Same assay, conditions: Acinetobacter baumannii, ATCC17961, 16 h, strain ATCC 17961, OD600 growth over 16 h, read-out: A. baumannii ATCC 17961 IC90
row,IC90 [µM],Compound
1,0.546,"CCc1cc(Nc2nccn3c(-c4cn(CCCC#N)nc4C(F)(F)F)cnc23)ccc1C(=O)NC [Example 343, 4-[[3-[1-(3-cyanopropyl)-3-(trifluoromethyl)pyrazol-4-yl]imidazo[1,2-a]pyrazin-8-yl]amino]-2-ethyl-N-methylbenzamide]"
2,0.572,"NCCCC(=O)NCCCNC(=O)c1ccc(Nc2nccn3c(-c4c[nH]nc4C(F)(F)F)cnc23)cc1Cl [Example 344, N-[3-(4-aminobutanoylamino)propyl]-2-chloro-4-[[3-[3-(trifluoromethyl)-1H-pyrazol-4-yl]imidazo[1,2-a]pyrazin-8-yl]amino]benzamide formate]"
3,1.55,"CNC(=O)c1ccc(Nc2nccn3c(-c4cn(C5CNC5)nc4C(F)(F)F)cnc23)cc1Cl [Example 348, 4-[[3-[1-(azetidin-3-yl)-3-(trifluoromethyl)pyrazol-4-yl]imidazo[1,2-a]pyrazin-8-yl]amino]-2-chloro-N-methylbenzamide hydrochloride]"
4,0.371,"CCc1cc(Nc2nccn3c(-c4c[nH]nc4C(F)(F)F)cnc23)ccc1C(=O)NC [Example 350, 2-ethyl-N-methyl-4-[[3-[3-(trifluoromethyl)-1H-pyrazol-4-yl]imidazo[1,2-a]pyrazin-8-yl]amino]benzamide]"
5,0.099,"C#CCn1cc(-c2cnc3c(Nc4ccc(C(=O)NC)c(Cl)c4)nccn23)c(C(F)(F)F)n1 [Example 351, 2-chloro-N-methyl-4-[[3-[1-prop-2-ynyl-3-(trifluoromethyl)pyrazol-4-yl]imidazo[1,2-a]pyrazin-8-yl]amino]benzamide]"
6,1.59,"CNC(=O)c1ccc(Nc2nccn3c(-c4cn(CC(N)=O)nc4C(F)(F)F)cnc23)cc1Cl [Example 357, 4-[[3-[1-(2-amino-2-oxoethyl)-3-(trifluoromethyl)pyrazol-4-yl]imidazo[1,2-a]pyrazin-8-yl]amino]-2-chloro-N-methylbenzamide]"
7,0.189,"CNC(=O)c1ccc(Nc2nccn3c(-c4cn(CCC#N)nc4C(F)(F)F)cnc23)cc1Cl [Example 358, 2-chloro-4-[[3-[1-(2-cyanoethyl)-3-(trifluoromethyl)pyrazol-4-yl]imidazo[1,2-a]pyrazin-8-yl]amino]-N-methylbenzamide]"
8,0.257,"Cc1cc(Nc2nccn3c(-c4c[nH]nc4C(F)(F)F)cnc23)ccc1C(=O)NCCOCCN [Example 360, N-[2-(2-aminoethoxy)ethyl]-2-methyl-4-[[3-[3-(trifluoromethyl)-1H-pyrazol-4-yl]imidazo[1,2-a]pyrazin-8-yl]amino]benzamide hydrochloride]"
9,0.267,"NCCOCCNC(=O)c1ccc(Nc2nccn3c(-c4c[nH]nc4C(F)(F)F)cnc23)cc1Cl [Example 361, N-[2-(2-aminoethoxy)ethyl]-2-chloro-4-[[3-[3-(trifluoromethyl)-1H-pyrazol-4-yl]imidazo[1,2-a]pyrazin-8-yl]amino]benzamide hydrochloride]"
10,0.35,"NCCCCNC(=O)c1ccc(Nc2nccn3c(-c4c[nH]nc4C(F)(F)F)cnc23)cc1Cl [Example 362, N-(4-aminobutyl)-2-chloro-4-[[3-[3-(trifluoromethyl)-1H-pyrazol-4-yl]imidazo[1,2-a]pyrazin-8-yl]amino]benzamide]"
11,0.738,"NCCNC(=O)c1ccc(Nc2nccn3c(-c4c[nH]nc4C(F)(F)F)cnc23)cc1Cl [Example 363, N-(2-aminoethyl)-2-chloro-4-[[3-[3-(trifluoromethyl)-1H-pyrazol-4-yl]imidazo[1,2-a]pyrazin-8-yl]amino]benzamide]"
12,1.13,"NCCCNC(=O)c1ccc(Nc2nccn3c(-c4c[nH]nc4C(F)(F)F)cnc23)cc1Cl [Example 364, N-(3-aminopropyl)-2-chloro-4-[[3-[3-(trifluoromethyl)-1H-pyrazol-4-yl]imidazo[1,2-a]pyrazin-8-yl]amino]benzamide]"
13,1.4,"CCc1cc(Nc2nccn3c(-c4c[nH]nc4C(F)(F)F)cnc23)ccc1C(=O)NCCCN [Example 365, N-(3-aminopropyl)-2-ethyl-4-[[3-[3-(trifluoromethyl)-1H-pyrazol-4-yl]imidazo[1,2-a]pyrazin-8-yl]amino]benzamide hydrochloride]"
14,0.957,"CCc1cc(Nc2nccn3c(-c4c[nH]nc4C(F)(F)F)cnc23)ccc1C(=O)N1CCC(CN)CC1 [Example 372, [4-(aminomethyl)piperidin-1-yl]-[2-ethyl-4-[[3-[3-(trifluoromethyl)-1H-pyrazol-4-yl]imidazo[1,2-a]pyrazin-8-yl]amino]phenyl]methanone hydrochloride]"

# Second part, the compound before the results:
row,Compound,IC90 [µM]
1,"CCCn1cc(-c2cnc3c(Nc4ccc(C(=O)NCCOCCN)c(CC)c4)nccn23)c(C(F)F)n1 [Example 346, N-[2-(2-aminoethoxy)ethyl]-4-[[3-[3-(difluoromethyl)-1-propylpyrazol-4-yl]imidazo[1,2-a]pyrazin-8-yl]amino]-2-ethylbenzamide]",0.164
2,"CCc1cc(Nc2nccn3c(-c4cn(C)nc4C(F)F)cnc23)ccc1C(=O)NCCOCCN [Example 347, N-[2-(2-aminoethoxy)ethyl]-4-[[3-[3-(difluoromethyl)-1-methylpyrazol-4-yl]imidazo[1,2-a]pyrazin-8-yl]amino]-2-ethylbenzamide]",1.67
3,"O=C(c1ccc(Nc2nccn3c(-c4c[nH]nc4C(F)(F)F)cnc23)cc1Cl)N1CCN(C(=O)C2(O)CCCNC2)CC1 (stereo not drawn) [Example 352, [2-chloro-4-[[3-[3-(trifluoromethyl)-1H-pyrazol-4-yl]imidazo[1,2-a]pyrazin-8-yl]amino]phenyl]-[4-(3-hydroxypiperidine-3-carbonyl)piperazin-1-yl]methanone]",0.229
4,"CCc1cc(Nc2nccn3c(-c4c[nH]nc4C(F)(F)F)cnc23)ccc1C(=O)N1CCN(C(=O)C2CCNCC2)CC1 [Example 354, [2-ethyl-4-[[3-[3-(trifluoromethyl)-1H-pyrazol-4-yl]imidazo[1,2-a]pyrazin-8-yl]amino]phenyl]-[4-(piperidine-4-carbonyl)piperazin-1-yl]methanone hydrochloride]",0.918
5,"CCc1cc(Nc2nccn3c(-c4c[nH]nc4C(F)(F)F)cnc23)ccc1C(=O)N1CCN(C(=O)C2(O)CCNCC2)CC1 [Example 355, [2-ethyl-4-[[3-[3-(trifluoromethyl)-1H-pyrazol-4-yl]imidazo[1,2-a]pyrazin-8-yl]amino]phenyl]-[4-(4-hydroxypiperidine-4-carbonyl)piperazin-1-yl]methanone hydrochloride]",1.3
6,"CNC(=O)c1ccc(Nc2nccn3c(-c4cn(CCCC#N)nc4C(F)(F)F)cnc23)cc1Cl [Example 359, 2-chloro-4-[[3-[1-(3-cyanopropyl)-3-(trifluoromethyl)pyrazol-4-yl]imidazo[1,2-a]pyrazin-8-yl]amino]-N-methylbenzamide]",0.303
7,"O=C(NC1CC(NC(=O)[C@@H]2C[C@@H](O)CN2)C1)c1ccc(Nc2nccn3c(-c4c[nH]nc4C(F)(F)F)cnc23)cc1Cl (stereo partly drawn) [Example 370, (2S,4R)-N-[3-[[2-chloro-4-[[3-[3-(trifluoromethyl)-1H-pyrazol-4-yl]imidazo[1,2-a]pyrazin-8-yl]amino]benzoyl]amino]cyclobutyl]-4-hydroxypyrrolidine-2-carboxamide]",0.177
8,"O=C(NC1CN(C(=O)[C@@H]2C[C@@H](O)CN2)C1)c1ccc(Nc2nccn3c(-c4c[nH]nc4C(F)(F)F)cnc23)cc1Cl [Example 371, 2-chloro-N-[1-[(2S,4R)-4-hydroxypyrrolidine-2-carbonyl]azetidin-3-yl]-4-[[3-[3-(trifluoromethyl)-1H-pyrazol-4-yl]imidazo[1,2-a]pyrazin-8-yl]amino]benzamide]",0.309

# Same assay, conditions: strain ATCC 17961, OD600 growth over 16 h, read-out: A. baumannii ATCC 17961 IC90
row,Compound,IC90 [µM]
1,"NCCCC[C@H](N)C(=O)NCCCNC(=O)c1ccc(Nc2nccn3c(-c4c[nH]nc4C(F)(F)F)cnc23)cc1Cl [Example 345, 2-chloro-N-[3-[[(2S)-2,6-diaminohexanoyl]amino]propyl]-4-[[3-[3-(trifluoromethyl)-1H-pyrazol-4-yl]imidazo[1,2-a]pyrazin-8-yl]amino]benzamide foramate]",1.22
